Test [1] concerns Rat type II alveolar cell, L2 cell line. The experiment in a line: Cell survival test (MTT analysis) under H2O2 oxidative stress. The class given is cell-based. Particulars: 24 hours, control group = 100%. How it is done:
The rat type II alveolar cell, L2 cell line (ATCC® CCL149™) were seeded into a 96-well plate at a density of 5×10^3 cells/well, 48 wells in total (separated into a control group and five experimental groups, 8 wells for each group). The cells were cultured until the next day, and then the mediums were removed. Each group was respectively treated under the following conditions to conduct follow-up experiments:
(1) Control group: cells were cultured in a F-12K medium (Kaighn's Modification of Ham's F-12 Medium, ATCC® 30-2004™) for 24 hours;
(2) Group 1: cells were cultured in a F-12K medium containing H2O2 (0.1 mM) for 24 hours;
(3) Group 2: cells were cultured in a F-12K medium containing H2O2 (0.1 mM) and compound (1) (5 μg/ml) for 24 hours;
(4) Group 3: cells were cultured in a F-12K medium containing H2O2 (0.1 mM) and N-acetylcysteine (NAC) (2 mM) for 24 hours;
(5) Group 4: cells were cultured in a F-12K medium containing H2O2 (0.2 mM) and compound (1) (5 μg/ml) for 24 hours; and
(6) Group 5: cells were cultured in a F-12K medium containing H2O2 (0.2 mM) and NAC (2 mM) for 24 hours.
The mediums were removed after culturing was complete, and then each group was respectively treated under the following conditions: F-12K mediums containing 10% of 3-(4,5-Dimethylthiazol-2-yl)-2,5-diphenyltetrazolium bromide (MTT) were added into each well, and cultured for 1 hour. Thereafter, the mediums were removed, and a suitable amount of dimethyl sulfoxide (DMSO) was added into the wells. An Enzyme-Linked ImmunoSorbent Assay reader (ELISA reader) was then used for detecting the absorbance of each group at a wavelength of 595 nm (OD595nm). The average value of each group was respectively calculated (n=8), and then the result of the control group served as the basis for calculating the relative survival rates of the other groups.

The test system of test [2] is C57B/L6 mice injected with Bleomycin sulfate (inducer of pulmonary fibrosis). In words: Pulmonary function by unrestrained whole body plethysmography in Bleomycin sulfate mice. Format: in vivo. The settings on record: compared to oil group; for accumulated volume (AV): p<0.01; for expiratory time (Te) / relaxation time (RT): p<0.05. As for the experimental part: 24 C57B/L6 mice (age: four weeks) were separated into four groups (6 mice in each group). Each group was respectively treated under the following conditions to conduct follow-up experiments: • (1) Control group (mice without pulmonary fibrosis; i.e., normal mice): 50 μl of PBS was administrated to each mouse by intratracheal injection, and then the mice were fed for 30 days; • (2) Oil group: 0.6 U/50 μl of Bleomycin sulfate (dissolved in PBS) was administrated to each mouse by intratracheal injection, and then 100 μl of olive oil was orally administrated to each mouse every day for 30 days; • (3) Low-dose group: 0.6 U/50 μl of Bleomycin sulfate (dissolved in PBS) was administrated to each mouse by intratracheal injection, and then compound (1) (10 mg/kg-body weight, prepared with olive oil to provide a final volume of 100 μl) was orally administrated to each mouse every day for 30 days; and • (4) High-dose group: 0.6 U/50 μl of Bleomycin sulfate (dissolved in PBS) was administrated to each mouse by intratracheal injection, and then compound (1) (50 mg/kg-body weight, prepared with olive oil to provide a final volume of 100 μl) was orally administrated to each mouse every day for 30 days.
In this experiment, the pulmonary functions of the mice from each group of Example 5 were evaluated with Unrestrained Whole Body Plethysmography (WBP). The inspiratory and expiratory flow rates of mice were calculated by measuring changes in the air inside and outside of a specific chamber, and respiratory parameters can be obtained therefrom. The respiratory parameters comprise the peak inspiratory flow (PIF) (i.e., the maximal volume being inspired in a period of time), peak expiratory flow (PEF) (i.e., the maximal volume being expired in a period of time), inspiratory time (Ti) (i.e., the average time of inspiration in a period of time), expiratory time (Te) (i.e., the average time of expiration in a period of time), respiratory rate (RR) (i.e., the numbers of breath per minute), accumulated volume (AV) (i.e., the average volume of air being breathed per minute), tidal volume (TV) (i.e., the average volume of air being expired per time), relaxation time (RT) (i.e., the average time needed for raising the pressure of air hatch to 40% of the maximal value), etc.

A further test concerns smad3 protein. The experiment in a line: smad3 protein in mouse pulmonary tissue, western blotting. The class given is in vivo, mice. The settings on record: compared to oil group. How it is done:
24 C57B/L6 mice (age: four weeks) were separated into four groups (6 mice in each group). […]
The samples of mice pulmonary tissue provided by Example 7 and preserved at −20° C. were removed from storage, and then ground in liquid nitrogen. […] The expressions of TGF-β protein, smad3 protein and surfactant C in the samples of each group were measured with western blotting, wherein the actin served as an internal control.
For orientation: In western blotting, separated proteins are transferred to a membrane and probed.

Setting [3] is: High-dose group, compound (1) 50 mg/kg orally daily 30 days.
Setting [4] is: Low-dose group, compound (1) 10 mg/kg orally daily 30 days.

From patent US20170333391A1, “METHOD FOR DELAYING THE ONSET OF PULMONARY FIBROSIS OR TREATING PULMONARY FIBROSIS” (EVERFRONT BIOTECH INC., priority 2016, published 2017) come the findings set out here.

For the compound `CCCC=C1OC(=O)c2ccccc21` [compound (1)], the Relative survival rate in test [1] (Group 2: H2O2 0.1 mM + compound (1) 5 μg/ml, H2O2 0.1 mM alone = 38.9%) is on record as 109.4%. Besides, in test [1] (Group 4: H2O2 0.2 mM + compound (1) 5 μg/ml), the Relative survival rate turned out to be 80.6%. Besides, in test [2] (setting [3]), the other respiratory parameters entry is given as “closer to the control group”, the “accumulated volume (AV)” value is on record as “significantly increased”, the “expiratory time (Te)” value is reported as “significantly decreased” and the “relaxation time (RT)” value is reported as “significantly decreased”. In test [2] (setting [4]), the other respiratory parameters entry is reported as “closer to the control group”, the “accumulated volume (AV)” value was “significantly increased”, the “expiratory time (Te)” value is given as “significantly decreased” and the “relaxation time (RT)” value was “significantly decreased”. Further, the “expression level of smad3 protein in pulmonary tissue” value in the test on smad3 protein (setting [3]) was “significantly lower”. For the same compound, the “expression level of smad3 protein in pulmonary tissue” value in the test with smad3 protein (setting [4]) was “significantly lower”.
